# Reference: patent publication US11773063B1, “Pharmaceutically acceptable salts and compositions thereof” (priority 2022, dated 2023)
# Structures can show the parent of a compound that is named as a salt. Where two headings read alike, the source gives them in different places.
# Assays:
# [1] = Dissolution in hot MeOH (phosphate re-crystallisation); assay type: physicochemical; set-up: key to Observation (sample dissolution in hot MeOH): ✓ = solution; ✓/X = turbid solution; X = suspension
# [2] = Polymorph assessment, slurry maturation in 10 solvents between 5 and 50° C.; assay type: physicochemical; set-up: key to Observation at 50° C. / Observation at 5° C.: ✓ = solution; ✓/X = turbid solution; X = suspension; settings: for dissolution in 10 volumes of solvent: 10 solvents, 5-50° C., 24 hours
# Description: (§1) DR-2186-45-01 (20 mg, PHO Pattern 1+Extra Peaks) was weighed into 10 HPLC vials. To this was added 10 volumes (200 μL) of solvent, a stirrer bar and the samples heated to 50° C. on a Polar Bear heat/cool block (400 RPM). After holding at 50° C. for 30 minutes and observation was made and the samples cooled to 5° C. where a further observation was made. All samples were than subjected to heat/cool cycles between 5 and 50° C. holding for 4 hours at each temperature for 24 hours.
# A polymorph assessment was carried out in 10 different solvents using PHO Pattern 1+extra peaks as the input material, maturating a slurry of the salt between 5° C. and 50° C. for 24 hours. The results of the XRPD analysis of the samples can be seen in FIG. 118. The isolated solid was the same as the input material in all cases other than MeOH.
# as §1, with “DR-2186-46-01” for “DR-2186-45-01”, “TAR” for “PHO”, “1)” for “1+Extra Peaks)”
# A polymorph assessment was carried out in 10 different solvents, maturating a slurry of the salt between 5° C. and 50° C. for 24 hours.
# [3] = Storage at 40° C./75% RH for 1 week, XRPD (salts produced during scale-up); assay type: physicochemical; settings: salt produced during scale-up
# Description: Oxalate Salt HPLC Purity, DVS, Stability at 40° C./75% RH (XRPD and HPLC), PSD/Morphology Assessment
# [4] = Solubility assessment in four different media; assay type: physicochemical; settings: for solubility: 37 °C, aqueous buffer, thermodynamic from solid, four different media; for pH after addition of 1.0 ml media at 37° C. / Observation: 250 mg per vial; for Observation: 1.0 ml media at 37° C.
# Description: Solubility assessments of 5-MeO-DMT oxalate, hydrobromide fumarate and benzoate were performed in four different media: […]
# [5] = assay type: physicochemical; settings: 40° C./75% RH, three days
# Description: Physical Stability of Salts
# Physical stability stress tests were conducted on generated crystalline salts at controlled temperature and relative humidity. The powder samples were stored at 40° C./75% RH for three days. After this time samples were analysed by XRPD to see whether the physical state of salts changed during the storage.
# [6] = Thermo-Gravimetric Analysis (TGA), thermal stability; settings: for thermal stability up to (TGA): nitrogen
# Description: Thermo—Gravimetric Analysis (TGA)
# TGA thermograms were obtained with a TA Instrument Discovery 550 in Al pans. The heating rate used was 10° C./min linear ramp from 25 to 400° C. with a nitrogen purging at a rate of 60 ml/min. TGA thermograms were analysed using TRIOS software.
# [7] = Dynamic Vapor Sorption (DVS), salt screen and scale-up salts; assay type: physicochemical
# Description: Dynamic Vapor Sorption (DVS)
# DVS analyses were performed on TA Instrument DVS Q5000. Samples were added to a pre-tared metallised quartz crucible and run at 25° C. from 40% RH to 90% RH, down to zero and back to 40%. This cycle was repeated in increments of 10% RH.
# [8] = Storage at 40° C./75% RH and 25° C./97% RH for 7 days, XRPD and HPLC (Example 3); assay type: physicochemical
# Description: FIG. 128. XRPD diffractogram overlay of 5-MeO-DMT Phosphate Pattern 1 before and after storage at 25° C./97% RH and 40° C./75% RH for 7 days.
# FIG. 139. XRPD diffractogram overlay of 5-MeO-DMT Tartrate Pattern 1 before and after storage at 25° C./97% RH and 40° C./75% RH for 7 days.
# The sample is classed as slightly hygroscopic with a total reversible mass change of 0.3 wt. % between 0-90% RH. The DVS isotherm and DVS kinetic plot can be seen in FIGS. 124 and 125, respectively. The solid form was unchanged after a double-cycle experiment, the XRPD analysis confirming this can be seen in FIG. 126.
# The sample is classed as slightly hygroscopic with a total reversible mass change of 0.6 wt. % between 0-90% RH (FIG. 135). The solid-form was unchanged after the double-cycle experiment (FIG. 136).
# [9] = DVS double-cycle experiment (Example 3); assay type: physicochemical
# [10] = Oxalate salt solubility by HPLC; assay type: physicochemical; settings: for solubility: thermodynamic from solid, by HPLC, mother liquors adjusted to the desired pH, read-out: Solubility (mg/ml) of free base
# Description: The calibration curve of the free base was prepared between 0.031-0.500 mg/ml and can be seen in FIG. 172.
# Oxalate Salt Solubility by HPLC
# Mother liquors were adjusted to the desired pH before HPLC quantification.
# [11] = 5-MeO-DMT phosphate, input DR-2186-45-01 (PHO Pattern 1+Extra Peaks), 20 mg in 10 volumes, solvent per sample: -01 MeOH, -02 Acetone, -03 CAN, -04 IPA:Water 9:1, -05 2-MeTHF, -06 EtOAc, -07 Ethanol, -08 Toluene, -09 MEK, -10 TBME
smiles,measurement,setting,value
"COc1ccc2[nH]cc(CCN(C)C)c2c1 [DR-2186-45-01, 5-MeO-DMT phosphate]",Observation (sample dissolution in hot MeOH),"[1]; 5 volumes of MeOH, 50° C., 1.00 g PHO Pattern 1+extra peaks",X
same,Observation (sample dissolution in hot MeOH),"[1]; 8 volumes of MeOH, 50° C.",X
same,Observation (sample dissolution in hot MeOH),"[1]; 12 volumes of MeOH, 50° C.",X
same,Observation (sample dissolution in hot MeOH),"[1]; 16 volumes of MeOH, 50° C.",X
same,Observation (sample dissolution in hot MeOH),"[1]; 18 volumes of MeOH, 50° C.",X
same,Observation (sample dissolution in hot MeOH),"[1]; 18 volumes of MeOH, 60° C.",X
same,Observation (sample dissolution in hot MeOH),"[1]; 20 volumes of MeOH, 60° C., 150 RPM, Easymax vessel overhead stirring",X
same,Observation (sample dissolution in hot MeOH),"[1]; 20 volumes of MeOH, 60° C., scintillation vial",X
same,Observation (sample dissolution in hot MeOH),"[1]; 22 volumes of MeOH, 60° C., Easymax vessel overhead stirring",X
same,Observation (sample dissolution in hot MeOH),"[1]; 24 volumes of MeOH, 60° C., Easymax vessel overhead stirring",✓/X
same,Observation (sample dissolution in hot MeOH),"[1]; 25 volumes of MeOH, 60° C., 250 RPM, Easymax vessel overhead stirring",✓
same,volumes of MeOH at which dissolution was achieved,"[1]; MeOH at 60° C., 1.00 g",25 volumes
same,dissolution in 10 volumes of solvent,[2]; listed as PHO Pattern 1+Extra Peaks,Non of the samples completely dissolved
COc1ccc2[nH]cc(CCN(C)C)c2c1.O=P(O)(O)O [DR-2186-52-02],Observation at 5° C.,[2]; [11],X
same,Observation at 50° C.,[2]; [11],X
"Br.COc1ccc2[nH]cc(CCN(C)C)c2c1 [Hydrobromide salt, 5-MeO-DMT hydrobromide]",crystalline form after storage (XRPD),[3],no change in crystalline form
same,solubility compared to other salts,[4],high solubility
same,solubility,[4],≥ 250 mg/mL
same,pH after addition of 1.0 ml media at 37° C.,[4]; SNF,8.13
same,Observation,[4]; SNF,Clear solution
same,pH after addition of 1.0 ml media at 37° C.,[4]; pH 1.2 buffer,8.09
same,Observation,[4]; pH 1.2 buffer,Clear solution
same,pH after addition of 1.0 ml media at 37° C.,[4]; pH 4.5 buffer,7.65
same,Observation,[4]; pH 4.5 buffer,Clear solution
same,pH after addition of 1.0 ml media at 37° C.,[4]; pH 6.8 buffer,7.82
same,Observation,[4]; pH 6.8 buffer,Clear solution
same,crystalline form after storage (XRPD),[5],No change in crystalline form
same,thermal stability up to (TGA),[6]; 10° C./min,220 °C
same,temperature with 95% of weight remaining (TGA),"[6]; Ramp 10° C./min to 400° C., salt produced during scale-up",269 °C
same,change of crystalline form during the DVS experiment (DVS / post-DVS XRPD),[7],no change in crystalline form
same,hygroscopicity class,"[7]; DVS, 25° C.",non-hygroscopic
"COc1ccc2[nH]cc(CCN(C)C)c2c1 [Tartrate Pattern 1, 5-MeO-DMT tartrate]",TGA mass loss before decomposition,[6],No mass loss observed in sample before
same,start of decomposition / complete mass loss (TGA),[6]; 10° C./min,175 °C
same,change by XRPD or HPLC after storage,[8]; 25° C./97% RH,no change
same,"Static Storage 7 days - 40° C./75% RH, XRPD",[8]; 40° C./75% RH,KRPD-TAR Pattern 1
same,change by XRPD or HPLC after storage,[8]; 40° C./75% RH,no change
same,"Static Storage 7 days - 40° C./75% RH, HPLC","[8]; 40° C./75% RH, HPLC purity",HPLC-97.8%
same,dissolution in 10 volumes of solvent,[2],No dissolution was observed
same,solid form after double-cycle DVS experiment (XRPD),[9],unchanged
same,total reversible mass change between 0-90% RH,[9]; DVS,0.6 wt. %
same,hygroscopicity class,"[9]; DVS 0-90% RH, Example 3",slightly hygroscopic (Pharmaceuticals that pick up between 0.2% and 2.0% moisture at 80% RH are considered slightly hygroscopic)
same,GVS total mass change as mol eq. water,[9]; from 0-90% RH,RH (0.12 mol eq. of water) and is reversible with mol eq. water
same,GVS total mass change,"[9]; from 0-90% RH, double cycle",Total mass change of 0.58 wt. % from 0-90%
same,Solid form of the material after GVS by XRPD,[9]; post GVS,unchanged by XRPD.
"COc1ccc2[nH]cc(CCN(C)C)c2c1 [Fumarate salt, 5-MeO-DMT fumarate]",crystalline form after storage (XRPD),[3],mixture of form/pattern 1 and form/pattern 2
same,pH after addition of 1.0 ml media at 37° C.,[4]; SNF,5.14
same,Observation,[4]; SNF,Clear solution
same,solubility,"[4]; four media: SNF, pH 1.2, pH 4.5 and pH 6.8 media",≥ 250 mg/mL
same,pH after addition of 1.0 ml media at 37° C.,[4]; pH 1.2 buffer,5.24
same,Observation,[4]; pH 1.2 buffer,Clear solution
same,pH after addition of 1.0 ml media at 37° C.,[4]; pH 4.5 buffer,5.31
same,Observation,[4]; pH 4.5 buffer,Clear solution
same,pH after addition of 1.0 ml media at 37° C.,[4]; pH 6.8 buffer,5.79
same,Observation,[4]; pH 6.8 buffer,Clear solution
same,crystalline form after storage (XRPD),[5],some additional peaks were also observed
same,thermal stability up to (TGA),[6]; 10° C./min,150 °C
same,change of crystalline form during the DVS experiment (DVS / post-DVS XRPD),[7],a change in crystalline form occurred
same,mass difference between 40% RH and 0% RH,"[7]; DVS, salt produced during scale-up",~2.84%
"COc1ccc2[nH]cc(CCN(C)C)c2c1 [Oxalate salt, 5-MeO-DMT oxalate]",crystalline form after storage (XRPD),[3],no change in crystalline form
same,form of isolated solids after solubility experiment (XRPD),[10],no change in form
same,solubility,"[10]; fassgf or other biorelevant, SNF",20.2 mg/mL
same,solubility,"[10]; pH 4.5 medium, aqueous buffer, pH 4.5",35.5 mg/mL
same,solubility,"[10]; pH 6.8 medium, aqueous buffer, pH 6.8",26.9 mg/mL
same,change of crystalline form during the DVS experiment (DVS / post-DVS XRPD),[7],no change in the crystalline form
